The record followed here is patent publication US9237761B2, “Methods and diets for lowering glucose and/or IGF-1 levels” (priority 2013, dated 2016).

The conditions of series [1]: 24 mg/kg i.v., mice fed ad lib AIN93G.
The test system of series [2] is 4T1 breast cancer. Briefly: 4T1 breast cancer subcutaneous tumor progression with cisplatin. The format is in vivo, BalB/C mice. To be noted: three cycles, 12, 8, 8 mg/kg i.v. days 15, 33, 44. The protocol: Murine 4T1 breast cancer and GL26 glioma cells were maintained in DMEM (Invitrogen) supplemented with 10% fetal bovine serum (FBS) at 37° C. under 5% CO2. Cells in log phase growth were washed and suspended in PBS at 2×10^6 cells/mL and injected subcutaneously (s.c., 2×10^5 cells/mouse in 100 μL PBS) in the lower back region of the mouse. Tumor size was measured using a caliper. To mimic multi-cycle treatments in humans, mice were treated intravenously (i.v., lateral tail vein) with Cisplatin (Teva Parenteral Medicines Inc.) three times on days 15, 33 and 44 after tumor inoculation at 12, 8 and 8 mg/kg body weight, respectively. Mice were monitored daily and animals showing signs of severe stress, deteriorating health status or excess tumor load (2000 mm^3) were designated as moribund and euthanized.
The efficacy of STS in augmenting the treatment of various cancers is twofold: it protects against chemotherapy-induced toxicity to normal cells/tissues and sensitizes malignant cells to chemotherapeutic agents. […] To test whether a short-term intermittent 50% CR (ICR) diet could result in similar beneficial effects as the established fasting protocols, murine 4T1 breast cancer cells were implanted subcutaneously into female BalB/C mice and monitored the tumor progression. […]

On to `COc1cccc2c1C(=O)c1c(O)c3c(c(O)c1C2=O)C[C@@](O)(C(=O)CO)C[C@@H]3O[C@H]1C[C@H](N)[C@H](O)[C@H](C)O1` [DXR, Doxorubicin], for which, in series [1], the “survival by day 25 post injection” value was determined as 16%.

Take `N.N.[Cl][Pt][Cl]` [cisplatin, Cisplatin]: the “tumor volume vs untreated mice” value in series [2] is on record as “approximately half the size”.
